Measured values: patent US20060241067A1, “Methods For inhibiting angiogenesis, cell migration, cell adhesion, and cell survival” (priority 2002, published 2006)
Entries after “also recorded” stand apart in the source; their conditions may differ.

Columns and labels:
Rho = Rho activity assay (GST-Rhotekin binding domain affinity precipitation); format: cell-based, human; conditions: cells attached to vitronectin 15 minutes; 250 μM dibutyryl cAMP or transfection
Experimental: (§1) Human umbilical vein endothelial cells (HUVEC) were grown in Endothelial Growth Medium (containing 2% fetal bovine serum, bFGF and VEGF) (Clonetics, San Diego, Calif.). To render HUVECs quiescent for Rac and/or Rho assays, monolayers of endothelial cells were incubated for 18 hrs in Endothelial Basal Medium supplemented with 0.1% serum (Clonetics). Cell migration and adhesion assays on ECM substrates were performed as previously described in Kim et al. (S. Kim et al., Amer. J. Biol. Chem., 275:33920-33928 (2000); and S. Kim et al., Amer. J. Path., 156:1345-1362 (2000)).
(§2) Rho activity was determined by measuring the amount of Rho affinity bound to GST-Rhotekin binding domain (RBD). Levels of active Rho were determined by Western blotting affinity precipitated protein with anti-Rho antibodies while total Rho levels were measured by immunoblotting total cell lysates with anti-Rho. Rac activity was determined by measuring the amount of Rac affinity precipitated by the GST-p21-activated protein binding domain, PBD (Upstate Biotechnology, Syracuse, N.Y.). Levels of active Rac were determined by immunoblotting affinity precipitated protein with anti-Rac antibodies. […] Total Rac levels were measured by immunoblotting total cell lysates with anti-Rac.

[1] = system: chick chorioallantoic membrane (CAM); experiment: Chick chorioallantoic membrane (CAM) angiogenesis assay; format: in vivo, chicken; conditions: bFGF stimulated CAMs; 250 μM cAMP or 4 μg plasmid
HUVECS = experiment: Annexin V-FITC staining of HUVECs (apoptosis); format: cell-based, human; conditions: cells on vitronectin, PTHrP, 250 μM dibutyryl cAMP or transfection
Experimental: Plates were also coated with […] goat anti-mouse IgG (Southern Biotechnology Associates, Inc., Birmingham, Ala.) at 37° C. for 2 h, rinsed, blocked with denatured BSA, and then incubated with […] anti-a5b1 or control IgG (anti-MHC) at 4° C. for 16 hrs. HUVECs were incubated on plates in the presence or absence of 10 mg/ml anti-α5β1, -αvβ3, -α2β1, or -MHC for 0-24 hrs. In some experiments, HUVECs were incubated with antibodies and […] caspase-3, -8 or -9 inhibitors or vehicle control (0.5% DMSO). Cells were then incubated with Annexin V-FITC for 15 min at room temperature in the dark. Washed cells were fixed in 1% paraformaldehyde, then incubated in DAPI. The percentage of Annexin positive cells in 5 microscopic fields was determined at 200× magnification by fluorescence microscopy.
HUVECs were plated for 24 h on ECM protein-coated plates in the presence of anti-αvβ3 or anti-α5β1, 1 μM HA1004 (a PKA inhibitor), and anti-αvβ3 or anti-α5β1 with 1 μM HA1004. Cells were stained with FITC-Annexin V or immunoblotted with anti-cleaved caspase 3 antibodies as described above. 5×10^6 HUVECs were electroporated in 300 μl of EGM with 30 μg of DNA (20 μg dnPKA or PKAcat plasmids, 2 μg N1-GFP and 8 μg pBluescript) at 300 V, 450 μF as previously described (Dormond et al. (2001) Nature Med. 7,1041-7). Expression of transgenes was determined by Western blotting of cell lysates with anti-V5 and anti-GFP antibodies. Transfection efficiency was quantified by determining the percent of cells that were co-transfected with GFP-expression vectors. Eighty-percent transfection efficiency was generally achieved using this electroporation method.

[2] = system: Human umbilical vein endothelial cells (HUVEC); experiment: Endothelial cell migration assay (transwell) on ECM substrates; format: cell-based; conditions: 250 μM dibutyryl cAMP or transient transfection with expression constructs
Experimental: as §1
Migration assays were performed essentially as described (Kim, et. al., 2000). […] HUVECS (25,000) were added to the upper chamber of inserts in migration buffer (Hepes buffered M199 medium containing 1% BSA, 2 mM MgCl2, 2 mM CaCl2 and 0.2 mM MnCl2) containing 25 μg/ml of various antibodies. In some experiments, 250 μM dibutyryl cAMP was placed in the upper and lower chambers of the transwell. Cells were allowed to migrate from the upper to the lower chamber for four hours at 37° C. The number of cells which had migrated were counted in three representative high power (200×) fields per insert. The data are presented as number of cells migrating+/−standard error of the mean. Migration assays were similarly performed on transfected cells. In this case, migrated transfected cells were identified by fluorescent microscopy and counted.

[3] = system: Human umbilical vein endothelial cells (HUVEC); experiment: Cell adhesion (attachment) assay on ECM substrates; format: cell-based; conditions: cAMP treatment or PKA catalytic subunit transfection
Experimental: as §1

Rac = Rac activity assay (GST-PBD affinity precipitation); format: cell-based, human; conditions: vitronectin 30 minutes, cAMP, PTHrP or transfection
Experimental: as §1, §2

In the case of `CCCC(=O)Nc1ncnc2c1ncn2[C@@H]1O[C@@H]2COP(=O)(O)O[C@H]2[C@H]1OC(=O)CCC` [dibutyryl cAMP], the “Rho activity (GTP-loading)” value (Rho) is reported as “stimulates Rho activity (GTP-loading)”, the “angiogenesis (blood vessel branch points)” value [1] is reported as “completely suppresses angiogenesis; also recorded: potently inhibits angiogenesis” and the “apoptosis of endothelial cells (annexin V positive cells)” value (HUVECS) is reported as “induced apoptosis in endothelial cells”. For the same compound, the “apoptosis of endothelial cells (annexin V positive cells)” value (HUVECS; listed as cAMP) was “significantly induce apoptosis”, the “endothelial cell migration on vitronectin” value [2] was “quantitatively inhibits endothelial cell migration” and the “cell attachment to vitronectin” value [3] was “enhanced cell attachment to vitronectin”. For the same compound, the “Rac activation (RacGTP to total Rac)” value (Rac) was “blocked” and the “Rac activation (RacGTP to total Rac)” value (Rac; listed as cell permeable cAMP) was “inhibits Rac activation”.
